Data reported in US20230242582A1, “NOVEL ALPHA-HELICAL DOUBLE-SIDED CELL PENETRATING PEPTIDE AND USE THEREOF” (CAMP THERAPEUTICS INC., priority 2020, published 2023).
Positions of bridges follow the written chain, without caps; N, C: chain ends. Non-standard residues stand in square brackets, D forms with d. Residues, ends and D or L forms follow the SMILES beside them. Chains are numbered I, II in the order given. tBuAla = CC(C)(C)C[C@H](N)C(=O)O

system: HeLa cells; assay: Cytotoxicity of dimeric peptides, WST-1 assay; format: cell-based, human; details: IC50 relative to LK-3, HeLa cells
Description: Cytotoxicity was identified using WST-1 assay by treating HeLa cells with peptides in a 96-well plate (1×10^4 cells/well) for 24 hours.
Specifically, HeLa cells were cultured in DMEM at a condition of 37° C. with 5% CO2. The cells were respectively cultured in a cell culture plate, and then removed with trypsin. The cells were seeded at 1×10^4 cells per well in a 96-well plate. After 24 hours, the peptide was added to the media, and culture was performed again at a condition of 37° C. with 5% CO2 for 24 hours. 10 uL of WST-1 reagent was added per well, and reaction was allowed to proceed for 30 minutes at a condition of 37° C. with 5% CO2. Then, UV absorbance was measured at 450/700 nm with a 96-well plate reader.

SMILES	ratio
CC(=O)N[C@@H](CC(C)(C)C)C(=O)N[C@H]1CSSC[C@@H](C(=O)N[C@@H](CCCNC(=N)N)C(N)=O)NC(=O)[C@H](CC(C)(C)C)NC(=O)[C@H](CCCNC(=N)N)NC(=O)[C@H](CCCNC(=N)N)NC(=O)[C@H](CC(C)(C)C)NC(=O)[C@H](CC(C)(C)C)NC(=O)[C@H](CCCNC(=N)N)NC(=O)[C@@H](NC(=O)[C@H](CC(C)(C)C)NC(C)=O)CSSC[C@@H](C(=O)N[C@@H](CCCNC(=N)N)C(N)=O)NC(=O)[C@H](CC(C)(C)C)NC(=O)[C@H](CCCNC(=N)N)NC(=O)[C@H](CCCNC(=N)N)NC(=O)[C@H](CC(C)(C)C)NC(=O)[C@H](CC(C)(C)C)NC(=O)[C@H](CCCNC(=N)N)NC1=O [diL*R10] (I: Ac-[tBuAla]CR[tBuAla][tBuAla]RR[tBuAla]CR-NH2 / II: Ac-[tBuAla]CR[tBuAla][tBuAla]RR[tBuAla]CR-NH2; disulfide I:2-II:9, I:9-II:2 (inferred))	3.11
CC[C@H](C)[C@H](NC(C)=O)C(=O)N[C@H]1CSSC[C@@H](C(=O)N[C@@H](CCCCN)C(N)=O)NC(=O)[C@H]([C@@H](C)CC)NC(=O)[C@H](CCCCN)NC(=O)[C@H](CCCCN)NC(=O)[C@H]([C@@H](C)CC)NC(=O)[C@H]([C@@H](C)CC)NC(=O)[C@H](CCCCN)NC(=O)[C@@H](NC(=O)[C@@H](NC(C)=O)[C@@H](C)CC)CSSC[C@@H](C(=O)N[C@@H](CCCCN)C(N)=O)NC(=O)[C@H]([C@@H](C)CC)NC(=O)[C@H](CCCCN)NC(=O)[C@H](CCCCN)NC(=O)[C@H]([C@@H](C)CC)NC(=O)[C@H]([C@@H](C)CC)NC(=O)[C@H](CCCCN)NC1=O [diIK10] (HELM PEPTIDE1{[ac].I.C.K.I.I.K.K.I.C.K.[am]}|PEPTIDE2{[ac].I.C.K.I.I.K.K.I.C.K.[am]}$PEPTIDE1,PEPTIDE2,3:R3-10:R3|PEPTIDE1,PEPTIDE2,10:R3-3:R3$$$V2.0; bridges inferred)	2.57
CC(=O)N[C@@H](Cc1ccccc1)C(=O)N[C@H]1CSSC[C@@H](C(=O)N[C@@H](CCCCN)C(N)=O)NC(=O)[C@H](Cc2ccccc2)NC(=O)[C@H](CCCCN)NC(=O)[C@H](CCCCN)NC(=O)[C@H](Cc2ccccc2)NC(=O)[C@H](Cc2ccccc2)NC(=O)[C@H](CCCCN)NC(=O)[C@@H](NC(=O)[C@H](Cc2ccccc2)NC(C)=O)CSSC[C@@H](C(=O)N[C@@H](CCCCN)C(N)=O)NC(=O)[C@H](Cc2ccccc2)NC(=O)[C@H](CCCCN)NC(=O)[C@H](CCCCN)NC(=O)[C@H](Cc2ccccc2)NC(=O)[C@H](Cc2ccccc2)NC(=O)[C@H](CCCCN)NC1=O [diFK10] (HELM PEPTIDE1{[ac].F.C.K.F.F.K.K.F.C.K.[am]}|PEPTIDE2{[ac].F.C.K.F.F.K.K.F.C.K.[am]}$PEPTIDE1,PEPTIDE2,3:R3-10:R3|PEPTIDE1,PEPTIDE2,10:R3-3:R3$$$V2.0; bridges inferred)	2.11
CC(=O)N[C@@H](CC(C)C)C(=O)N[C@@H](CCCCN)C(=O)N[C@@H](CCCCN)C(=O)N[C@@H](CC(C)C)C(=O)N[C@H]1CSSC[C@@H](C(=O)N[C@@H](CCCCN)C(=O)N[C@@H](CC(C)C)C(=O)N[C@@H](C)C(=O)NCC(N)=O)NC(=O)[C@H](CC(C)C)NC(=O)[C@H](CCCCN)NC(=O)[C@H](CCCCN)NC(=O)[C@H](CC(C)C)NC(=O)[C@H](CC(C)C)NC(=O)[C@H](CCCCN)NC(=O)[C@@H](NC(=O)[C@H](CC(C)C)NC(=O)[C@H](CCCCN)NC(=O)[C@H](CCCCN)NC(=O)[C@H](CC(C)C)NC(C)=O)CSSC[C@@H](C(=O)N[C@@H](CCCCN)C(=O)N[C@@H](CC(C)C)C(=O)N[C@@H](C)C(=O)NCC(N)=O)NC(=O)[C@H](CC(C)C)NC(=O)[C@H](CCCCN)NC(=O)[C@H](CCCCN)NC(=O)[C@H](CC(C)C)NC(=O)[C@H](CC(C)C)NC(=O)[C@H](CCCCN)NC1=O [LK-3, reference compound] (HELM PEPTIDE1{[ac].L.K.K.L.C.K.L.L.K.K.L.C.K.L.A.G.[am]}|PEPTIDE2{[ac].L.K.K.L.C.K.L.L.K.K.L.C.K.L.A.G.[am]}$PEPTIDE1,PEPTIDE2,6:R3-13:R3|PEPTIDE1,PEPTIDE2,13:R3-6:R3$$$V2.0; bridges inferred)	1.00
CC(=O)N[C@@H](CC(C)(C)C)C(=O)N[C@H]1CSSC[C@@H](C(=O)N[C@@H](CCCCN)C(N)=O)NC(=O)[C@H](CC(C)(C)C)NC(=O)[C@H](CCCCN)NC(=O)[C@H](CCCCN)NC(=O)[C@H](CC(C)(C)C)NC(=O)[C@H](CC(C)(C)C)NC(=O)[C@H](CCCCN)NC(=O)[C@@H](NC(=O)[C@H](CC(C)(C)C)NC(C)=O)CSSC[C@@H](C(=O)N[C@@H](CCCCN)C(N)=O)NC(=O)[C@H](CC(C)(C)C)NC(=O)[C@H](CCCCN)NC(=O)[C@H](CCCCN)NC(=O)[C@H](CC(C)(C)C)NC(=O)[C@H](CC(C)(C)C)NC(=O)[C@H](CCCCN)NC1=O [diL*K10] (I: Ac-[tBuAla]CK[tBuAla][tBuAla]KK[tBuAla]CK-NH2 / II: Ac-[tBuAla]CK[tBuAla][tBuAla]KK[tBuAla]CK-NH2; disulfide I:2-II:9, I:9-II:2 (inferred))	2.32

system: HeLa cells; assay: Cell-penetrating ability of fluorescently labeled dimeric peptides, flow cytometry; format: cell-based, human; details: at 62.5 nM, FIG. 6A
Description: During preparation of CPPs in dimeric form shown in Tables 1 to 3, one monomer thereof was prepared in a form where 5-TAMRA fluorescence was attached to the N-terminus, instead of acetyl. A monomer with acetyl and a monomer with 5-TAMRA fluorescence were mixed in a molar ratio of 1:1, and subjected to an oxidation condition in air to produce a dimeric form in which only one fluorescence was labeled per dimer molecule. Then, cell-penetrating ability of each dimer was identified. Each fluorescently labeled peptide was used to treat HeLa cells (5×10^4 cells/well), which are human-derived cells, and a ratio of the number of cells with fluorescence to the total number of cells was obtained through flow cytometry.
FIGS. 4B to 4D illustrate results obtained by treating cells with respective dimers at the same concentration (62.5 nM), measuring fluorescence intensity of the cells by flow cytometry, and relatively comparing the fluorescence intensity.
Based on cell-penetrating ability and cytotoxicity of the dimeric peptides of the present disclosure, correlation therebetween was identified. Cytotoxicity (IC50^−1) and cell-penetrating ability of the respective peptides were identified at 62.5 nM according to the methods described in Examples 5 and 6, and then graphically represented.

SMILES	ratio of cell-penetrating ability to cytotoxicity (IC50^−1)
CC(=O)N[C@@H](CC(C)C)C(=O)N[C@@H](CCCCN)C(=O)N[C@@H](CCCCN)C(=O)N[C@@H](CC(C)C)C(=O)N[C@H]1CSSC[C@@H](C(=O)N[C@@H](CCCCN)C(=O)N[C@@H](CC(C)C)C(=O)N[C@@H](C)C(=O)NCC(N)=O)NC(=O)[C@H](CC(C)C)NC(=O)[C@H](CCCCN)NC(=O)[C@H](CCCCN)NC(=O)[C@H](CC(C)C)NC(=O)[C@H](CC(C)C)NC(=O)[C@H](CCCCN)NC(=O)[C@@H](NC(=O)[C@H](CC(C)C)NC(=O)[C@H](CCCCN)NC(=O)[C@H](CCCCN)NC(=O)[C@H](CC(C)C)NC(C)=O)CSSC[C@@H](C(=O)N[C@@H](CCCCN)C(=O)N[C@@H](CC(C)C)C(=O)N[C@@H](C)C(=O)NCC(N)=O)NC(=O)[C@H](CC(C)C)NC(=O)[C@H](CCCCN)NC(=O)[C@H](CCCCN)NC(=O)[C@H](CC(C)C)NC(=O)[C@H](CC(C)C)NC(=O)[C@H](CCCCN)NC1=O [LK-3, reference compound] (HELM PEPTIDE1{[ac].L.K.K.L.C.K.L.L.K.K.L.C.K.L.A.G.[am]}|PEPTIDE2{[ac].L.K.K.L.C.K.L.L.K.K.L.C.K.L.A.G.[am]}$PEPTIDE1,PEPTIDE2,6:R3-13:R3|PEPTIDE1,PEPTIDE2,13:R3-6:R3$$$V2.0; bridges inferred)	about 130,000
